This passage reports IC50 and EC50 results from patent US20220119493A1, “IL-7R-ALPHA BINDING COMPOUNDS” (MEDIKINE, INC., priority 2020, published 2022).

For experiment [1], the target named is T1, IL-7Rα (Homo sapiens, UniProt P16871).
T1 construct: Fc; purchased ACRObiosystems, Inc. ILB-H5258
Kind of experiment: Competitive binding ELISA bn407:NA-HRP. Particulars: bn407:NA-HRP 10 nMf; SEQ ID NOS: 520-534 with two glycines (-GG-) on the carboxyl terminus.

Experiment [2] deals with T2, IL-7Rα subunit (Homo sapiens, UniProt P16871).
T2 construct: Fc; purchased ACRObiosystems, Inc. ILB-H5258
T2 sequence (P16871 21-236): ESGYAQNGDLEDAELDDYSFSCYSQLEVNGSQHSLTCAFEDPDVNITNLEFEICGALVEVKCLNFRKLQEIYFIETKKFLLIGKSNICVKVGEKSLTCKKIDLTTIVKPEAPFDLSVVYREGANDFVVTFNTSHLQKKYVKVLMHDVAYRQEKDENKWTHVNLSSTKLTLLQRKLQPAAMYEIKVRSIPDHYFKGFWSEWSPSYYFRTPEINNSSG
The experiment can be described thus: Phage ELISA competition assay. Particulars: read-out: IC50, binding to the unique binding site on the IL-7Rα subunit. Background: In an ELISA, binding on a coated surface is turned into a signal by an enzyme label.

The subject of experiment [3] is CD4 and CD8 T-cells. Kind of experiment: Ki-67 proliferation assay in CD4 and CD8 T-cells. It is filed as cell-based. Particulars: human PBMCs, 3 days; hIL-7 comparator.

T1 sequence (P16871 21-236): as above

Broadly, the IC50 is the concentration needed to halve the response being measured. `CC[C@H](C)[C@H](NC(=O)[C@H](CCCNC(=N)N)NC(=O)[C@H](Cc1c[nH]cn1)NC(=O)[C@@H](N)C(C)C)C(=O)N1CCC[C@H]1C(=O)N[C@@H](Cc1c[nH]c2ccccc12)C(=O)N[C@H]1CSSC[C@@H](C(=O)N[C@@H](C)C(=O)N[C@@H](Cc2c[nH]c3ccccc23)C(=O)N[C@@H](CC(C)C)C(=O)N[C@@H](CCCNC(=N)N)C(=O)N[C@@H](CCC(N)=O)C(=O)N[C@@H](CCSC)C(=O)NCC(=O)NCC(=O)O)NC(=O)[C@H](CCC(N)=O)NC(=O)[C@H](CC(C)C)NC(=O)CNC(=O)CNC(=O)[C@@H]2CCCN2C(=O)[C@H](CC(=O)O)NC(=O)[C@H](CC(C)C)NC(=O)[C@H]([C@@H](C)O)NC1=O` [SEQ ID NO: 554, VHRIPWCTLDPGGLQCAWLRQMGG] came in with a half-inhibitory concentration (IC50) in experiment [1] of 382 nM.
`CSCC[C@H](NC(=O)[C@@H](N)Cc1ccc(O)cc1)C(=O)N[C@@H](C)C(=O)N[C@H]1CSSC[C@@H](C(=O)N[C@@H](CCCNC(=N)N)C(=O)N[C@@H](CC(C)C)C(=O)N[C@@H](CO)C(=O)O)NC(=O)[C@H](CC(C)C)NC(=O)[C@H](CO)NC(=O)[C@H](CC(C)C)NC(=O)CNC(=O)[C@H](CO)NC(=O)[C@H](CO)NC1=O` [compound 104]: the IC50 in experiment [2] was under 10000 nM.
In the case of `CC[C@H](C)[C@H](NC(=O)[C@@H]1CSSC[C@H](NC(=O)[C@@H](N)CCC(N)=O)C(=O)N[C@@H](C(C)C)C(=O)N[C@@H](Cc2c[nH]cn2)C(=O)N[C@@H](Cc2c[nH]c3ccccc23)C(=O)N[C@@H](CC(=O)O)C(=O)N[C@@H](CC(C)C)C(=O)N[C@@H](CC(=O)O)C(=O)N[C@@H]([C@@H](C)O)C(=O)N[C@@H](CC(C)C)C(=O)N[C@@H](Cc2ccccc2)C(=O)NCC(=O)N1)C(=O)N[C@@H](CCCNC(=N)N)C(=O)N[C@@H](CCC(=O)O)C(=O)N[C@@H](CCC(N)=O)C(=O)N[C@@H](CC(C)C)C(=O)N[C@@H](CCC(=O)O)C(=O)N[C@@H](CC(C)C)C(=O)O` [compound 146], the concentration for half-maximal inhibition (IC50) in experiment [2] was under 10000 nM.
On the same count and under the same terms, to `CC(C)C[C@@H]1NC(=O)[C@H](CO)NC(=O)CNC(=O)[C@@H]2CCCN2C(=O)[C@H](CC(=O)O)NC(=O)[C@H](CC(C)C)NC(=O)[C@H]([C@@H](C)O)NC(=O)[C@@H](NC(=O)[C@H](Cc2c[nH]c3ccccc23)NC(=O)[C@@H]2CCCN2C(=O)[C@@H](NC(=O)CNC(=O)CN)C(C)C)CSSC[C@@H](C(=O)N[C@@H](C)C(=O)N[C@@H](Cc2c[nH]c3ccccc23)C(=O)N[C@@H](Cc2ccccc2)C(=O)O)NC(=O)[C@H](CCC(N)=O)NC1=O` [compound 458] belongs under 10000 nM.
Broadly, the EC50 is the midpoint of the concentration-response curve. With “hIL-7: human interleukin-7, the natural cytokine, comparator in the functional assays”, the EC50 in experiment [3] was about 1 nM.
